# “Also recorded” adds a separate entry of the source. Like-named read-outs stand apart in the source and are kept apart here.
# What was measured:
# [1] = tested on: CFLP mice; assay: Hexobarbital narcosis potentiating effect; format: in vivo; settings: screen test, i.p., 1 hour before hexobarbital 60 mg./kg. into tail vein; change of sleeping period related to controls
# Description: The hexobarbital narcosis potentiating effect was determined by the method of Rumke et al. (Arch. Int. […]. The change of sleeping period was expressed in percent related to the controls.
# [2] = tested on: CFLP mice; assay: Antimetrazole activity (protection from tonic extensor spasm); format: in vivo; settings: for ED50: Mus musculus, 1 h
# Description: 1. The first series of examinations was carried out according to the method of Everett and Richards (Everett G. M., Richards R. K.: J. Pharm. Exp. Ther. 81, 402 (1944)). 125 mg./kg. of metrazole were administered subcutaneously to the test animals. 1 hour after the administration the animals protected from tonic extensor spasm and the surviving animals were counted.
# [3] = Rotarod test (muscle incoordination and ataxia); format: in vivo, CFLP mice; settings: mouse, in vivo, 1 hour before test
# Description: (§1) a. Rotarod test: The test was carried out according to the method of Kinnard and Carr (Brit. J. Pharmacol. Exp. Ther. 121, 354 (1957)). […] The ED50 values were calculated from the percentage of the animals falling down within 120 sec.
# [4] = Acute toxicity; format: in vivo, CFLP mice; settings: mouse, in vivo, death rate observed for one week
# [5] = tested on: CFLP mice; assay: Maximum electroshock (anti-electroshock activity); format: in vivo; settings: 1 hour before test; for ED50: Mus musculus, 1 h
# Description: 2. Maximum electroshock stimulus (100 Hz, 30 V, 0.2 sec.) was applied according to the method of Swinyard et al. (Swinyard E. A., Brown W. C., Goodman, L. S.: J. Pharmacol. 106, 319 (1952)). The animals showing no tonix extension on the hind limb upon stimulus were considered as protected.
# [6] = tested on: CFLP mice; assay: Disappearance of righting reflex; format: in vivo; settings: Mus musculus, po
# [7] = tested on: CFLP mice; assay: Rotarod test (muscle incoordination and ataxia); format: in vivo; settings: for Rotarod ED50 : Antimetrazole ED50: ratio (1) of Table 2, p.o.
# Description: as §1
# [8] = tested on: CFLP mice; assay: Narcosis potentiating effect (sodium barbiturate); format: in vivo; settings: for ED50: Mus musculus, po, 1 hour before sodium barbiturate 100 mg./kg. i.p.; for Narcosis potentiation ED50 : Antimetrazole ED50: ratio (3) of Table 2, p.o.
# [9] = tested on: CFLP mice; assay: Antagonism of strychnine spasm; format: in vivo; settings: for ED50: Mus musculus, po, 1 h, read-out: Antistrychnine activity ED50; for Antistrychnine ED50 : Antimetrazole: ratio (2) of Table 2, p.o.
# Description: Tonic extensor spasm was produced by administering an intraperitoneal dosage of 2 mg./kg. of strychnine to the animals (Kerley T. L., Richards A. G., Begley, R. W., Abren, B. E. and Weaver, L. C: J. Pharmacol. Exp. Ther. 132, 360 (1961)). The animals showing no spasm were considered as protected.
# [10] = Traction test (muscle incoordination and ataxia); parameters: species or system CFLP mice; settings: mouse, in vivo, po, 1 hour before test; read-out: Traction test ED50
# Description: b. Traction test: The test was carried out according to the method of Theobald et al. (Arch. int. Pharmacodyn. 148, 560 (1964)). The two anterior limbs of the test animals were placed onto a horizontal rod so as to let the animals clutch the rod. […] The ED50 values were calculated from the percentage of the animals showing negative response.
# [11] = tested on: CFLP mice; assay: Acute toxicity; format: in vivo
# [12] = tested on: CFLP mice; assay: Sedative and muscle relaxant effects (overall assessment); format: in vivo; settings: in words
# [13] = ip, screen test, i.p., 1 hour before test, metrazole 125 mg./kg. s.c., read-out: Antimetrazole ED50
# [14] = ip, screen test, i.p., read-out: Rotarod ED50
# [15] = ip, screen test, i.p., read-out: Anti-electroshock ED50 ip.
# [16] = po, p.o., 1 hour before test, metrazole 125 mg./kg. s.c., 95% confidence limit in next line, read-out: Antimetrazole activity ED50
# [17] = po, p.o., 100 Hz, 30 V, 0.2 sec., read-out: Anti-electroshock activity ED50
# [18] = po, 12/min., 120 sec., read-out: Rotarod test ED50
# [19] = po, read-out: Acute toxicity (LD50)
Compound,"Hexobarbital potentiation, % [1]","ED50 [2, 13]","LD50 at 168 h ([4]; ip, read-out: LD50 i.p.)","ED50 [5, 15]",also measured
"NC(=O)N1CC(=O)Nc2ccc(Cl)cc2C1c1ccccc1 (stereo not shown) [Example 13, 4-Carbamoyl-5-phenyl-7-chloro-1,3,4,5-tetrahydro-2H-1,4-benzodiazepine-2-on]",89%,4.9 mg/kg,367 mg/kg,14 mg/kg,"TD50 at 1 h [3, 14]: 13.5 mg/kg"
"CNC(=O)N1CC(=O)Nc2ccc([N+](=O)[O-])cc2C1c1ccccc1 (stereo not shown) [Example 14, 4-Methylcarbamoyl-5-phenyl-7-nitro-1,3,4,5-tetrahydro-2H-1,4-benzodiazepine-2-one]",75%,19.5 mg/kg,936 mg/kg,20 mg/kg,–
CN1C(=O)CN=C(c2ccccc2)c2cc(Cl)ccc21 [Diazepam],–,–,–,–,"ED50 [6]: 238 mg/kg; ED50 [2, 16]: 0.75 mg/kg; Rotarod ED50 : Antimetrazole ED50 [7]: 4.3; ED50 [8]: 3.9 mg/kg; Narcosis potentiation ED50 : Antimetrazole ED50 [8]: 5.2; ED50 [5, 17]: 8.29 mg/kg; ED50 [9]: 5.71 mg/kg; Antistrychnine ED50 : Antimetrazole [9]: 7.6"
"CNC(=O)N1CC(=O)Nc2ccc(Cl)cc2C1c1ccccc1 (stereo not shown) [Example 16, 4-Methylcarbamoyl-5-phenyl-7-chloro-1,3,4,5-tetrahydro-2H-1,4-benzodiazepine-2-one]",104%,4.1 mg/kg,800 mg/kg,14 mg/kg,–
"CNC(=O)N1CC(=O)Nc2ccccc2C1c1ccccc1 (stereo not shown) [Example 15, 4-Methylcarbamoyl-5-phenyl-1,3,4,5-tetrahydro-2H-1,4-benzodiazepine-2-one]",93%,20 mg/kg,> 500 mg/kg,20 mg/kg,–
"CN1C(=O)CN(C(=O)c2ccccc2Cl)C(c2ccccc2)c2cc(Cl)ccc21 (stereo not shown) [Example 31, 1-Methyl-4-(o-chlorobenzoyl)-5-phenyl-7-chloro-1,3,4,5-tetrahydro-2H-1,4-benzodiazepine-2-one]",85%,14 mg/kg,> 1600 mg/kg,20 mg/kg,–
"CC(=O)N1CC(=O)N(C)c2ccc(Cl)cc2C1c1ccccc1 (stereo not shown) [Example 28, 1-Methyl-4-acetyl-5-phenyl-7-chloro-1,3,4,5-tetrahydro-2H-1,4-benzodiazepine-2-one]",125%,7 mg/kg,312 mg/kg,20 mg/kg,–
"CN1C(=O)CN(C(N)=O)C(c2ccccc2)c2cc(Cl)ccc21 (racemic) [Compound ""A"", 1-methyl-4-carbamoyl-5-phenyl-7-chloro-1,3,4,5-tetrahydro-2H-1,4-benzodiazepine-2-one]",–,–,–,–,"ED50 [6]: 1400 mg/kg; ED50 [2, 16]: 0.66 mg/kg; tetrachor spasm inhibiting effect / anticonvulsive effect compared with Diazepam ([2]; in words, vs Diazepam): practically identical to that of Diazepam; animals protected against metrazole spasm ([2]; single intravenous dosage of 5 mg./kg., 7 hours after administration): 50%; Rotarod ED50 : Antimetrazole ED50 [7]: 10.2; TD50 at 1 h [3, 18]: 6.7 mg/kg; TD50 at 1 h [10]: 26.9 mg/kg; therapeutic index compared with Diazepam ([11]; in words): more favourable; LD50 at 168 h [4, 19]: 1680 mg/kg; sedative and muscle relaxant effects compared with Diazepam [12]: provokes muscle relaxation and sedation only in higher dosages; also recorded: much lower; relation of the effects to those of the reference substances ([12]; vs Chlorodiazepoxide and Diazepam): more closely related to those of Chlorodiazepoxide than of Diazepam; dosages provoking muscle incoordination, muscle relaxation, and narcosis potentiation in relation to the dosage provoking anticonvulsive effect ([12]; vs reference substances Diazepam and Chlorodiazepoxide): clearly more advantageous than the reference substances; ED50 [8]: 8.8 mg/kg; Narcosis potentiation ED50 : Antimetrazole ED50 [8]: 13.3; ED50 [5, 17]: 19.3 mg/kg; ED50 [9]: 26 mg/kg; Antistrychnine ED50 : Antimetrazole [9]: 39.4"
"CC(NC(=O)N1CC(=O)N(C)c2ccc(Cl)cc2C1c1ccccc1)c1ccccc1 (stereo not shown) [Example 24, 1-Methyl-4-(1-methyl-benzylcarbamoyl)-5-phenyl-7-chloro-1,3,4,5-tetrahydro-2H-1,4-benzodiazepine-2-one]",96%,13.5 mg/kg,271 mg/kg,20 mg/kg,–
"CN1C(=O)CN(C(N)=O)C(c2ccccc2)c2cc(Cl)ccc21 (single isomer, unassigned; (+)) [Example 55, (+)-1-Methyl-4-carbamoyl-5-phenyl-7-chloro-1,3,4,5-tetrahydro-2H-1,4-benzodiazepine-2-one]",368%,1.65 mg/kg,611 mg/kg,10 mg/kg,"TD50 at 1 h [3, 14]: 7 mg/kg"
"CNC1=Nc2ccc(Cl)cc2C(c2ccccc2)=[N+]([O-])C1 [Chlorodiazepoxide, reference compound]",–,–,–,–,"ED50 [6]: 436 mg/kg; ED50 [2, 16]: 2.47 mg/kg; Rotarod ED50 : Antimetrazole ED50 [7]: 4.9; TD50 at 1 h [3, 18]: 12.2 mg/kg; TD50 at 1 h [10]: 31.2 mg/kg; LD50 at 168 h [4, 19]: 850 mg/kg; ED50 [8]: 8.1 mg/kg; Narcosis potentiation ED50 : Antimetrazole ED50 [8]: 3.3; ED50 [5, 17]: 23.5 mg/kg; ED50 [9]: 28.4 mg/kg; Antistrychnine ED50 : Antimetrazole [9]: 11.5"
"CCOC(=O)N1CC(=O)Nc2ccc([N+](=O)[O-])cc2C1c1ccccc1 (stereo not shown) [Example 2, 4-Ethoxycarbonyl-5-phenyl-7-nitro-1,3,4,5-tetrahydro-2H-1,4-benzodiazepine-2-one]",168%,12.5 mg/kg,> 1600 mg/kg,14 mg/kg,–
"CN1C(=O)CN(C=O)C(c2ccccc2)c2cc(Cl)ccc21 (stereo not shown) [Example 33, 1-Methyl-4-formyl-5-phenyl-7-chloro-1,3,4,5-tetrahydro-2H-1,4-benzodiazepine-2-one]",110%,3.4 mg/kg,688 mg/kg,14 mg/kg,"TD50 at 1 h [3, 14]: 23 mg/kg"
"CCCCNC(=O)N1CC(=O)Nc2ccc([N+](=O)[O-])cc2C1c1ccccc1 (stereo not shown) [Example 18, 4-n-Butylcarbamoyl-5-phenyl-7-nitro-1,3,4,5-tetrahydro-2H-1,4-benzodiazepine-2-one]",77%,14 mg/kg,320 mg/kg,20 mg/kg,–
"CN1C(=O)CN(C(N)=O)C(c2ccccc2)c2cc(Cl)ccc21 (single isomer, unassigned; (-)) [Example 56, (-)-1-Methyl-4-carbamoyl-5-phenyl-7-chloro-1,3,4,5-tetrahydro-2H-1,4-benzodiazepine-2-one]",112%,–,–,–,"Antimetrazole ED50 ([2]; screen test, i.p., 1 hour before test, metrazole 125 mg./kg. s.c., 60 min): 2.2 mg/kg; Rotarod ED50 ([7]; screen test, i.p., 1 hour before test, 60 min): 13.0 mg/kg; LD50 i.p. ([11]; i.p., death rate observed for one week, 10080 min): 661.2 mg/kg; Anti-electroshock ED50 ip. ([5]; screen test, i.p., 60 min): 8.4 mg/kg"

# From patent publication US4045433A, “1,3,4,5-Tetrahydro-2H-1,4-benzodiazepin-2-ones” (priority 1974, dated 1977)
